# Reference: patent US8486374B2, “Hydrophilic, non-aqueous pharmaceutical carriers and compositions and uses” (Foamix Ltd., priority 2004, dated 2013)
# Counter-ions that a name gives are not always drawn.
# Key:
# [1] = anti-inflammatory steroids at typical concentration in topical products (triamcinolone acetonide 0.025%-0.1% medium, 0.5% high); cited from earlier work
# [2] = Foam appearance (color, odor, form); format: physicochemical; design: key to ODOR: No odor (N.O.); key to COLOR: white (W)
# [3] = Shakability of the composition; format: physicochemical
# Description: ‘Shakability’ means that the composition contains some or sufficient flow to allow the composition to be mixed or remixed on shaking. That is, it has fluid or semi fluid properties. A breakable foam is that is thermally stable, yet breaks under sheer force.
# ‘Shakability’ means that the composition contains some or sufficient flow to allow the composition to be mixed or remixed on shaking. That is, it has fluid or semi fluid properties. In some very limited cases it may still be possible to have a foamable composition which is flowable but not apparently shakable.
# [4] = active agent in stock of PEG-400 97.5, hydroxypropyl cellulose 0.5, steareth 2 2.0 (first Example 29)
# [5] = active agent in stock of propylene glycol 46, glycerin 33, dimethyl isosorbide 15, stearyl alcohol, hydroxypropyl cellulose, laureth-4, GMS/PEG 100 stearate (Example 30)
# [6] = active agent in stock of propylene glycol 91, stearyl alcohol 2, Klucel EF 2, laureth-4 2, glyceryl monostearate/PEG 100 stearate 3 (second Example 29)
SMILES,"COLOR [2, 4]","ODOR [2, 4]","COLOR [2, 5]","ODOR [2, 5]","COLOR [2, 6]","ODOR [2, 6]","SHAKABILITY [3, 4]","SHAKABILITY [3, 5]","SHAKABILITY [3, 6]",Relative Potency [1]
CCC(=O)O[C@]1(C(=O)CCl)[C@@H](C)C[C@H]2[C@@H]3CCC4=CC(=O)C=C[C@]4(C)[C@@]3(F)[C@@H](O)C[C@@]21C [Clobetasol Propionate],,,,,,,,,,Highest Potency
CC1(C)O[C@@H]2C[C@H]3[C@@H]4C[C@H](F)C5=CC(=O)C=C[C@]5(C)[C@@]4(F)[C@@H](O)C[C@]3(C)[C@]2(C(=O)CO)O1 [Fluocinolone Acetonide],,,,,,,,,,Medium Potency
C[C@]12CCC(=O)C=C1CC[C@@H]1[C@@H]2[C@@H](O)C[C@@]2(C)[C@H]1CC[C@]2(O)C(=O)CO [Hydrocortisone],,,,,,,,,,Low Potency
Cn1c(=O)c2c(ncn2C)n(C)c1=O [Caffeine],W,N.O,W,N.O,W,N.O,Yes,Yes,Yes,
C[C@@H]1C[C@H]2[C@@H]3CCC4=CC(=O)C=C[C@]4(C)[C@@]3(Cl)[C@@H](O)C[C@]2(C)[C@@]1(OC(=O)c1ccco1)C(=O)CCl [Mometasone furoate],,,,,,,,,,Medium Potency
"CC1(C)C(C=C(Cl)Cl)C1C(=O)OCc1cccc(Oc2ccccc2)c1 (stereo not drawn) [Permethrin BPC (cis:trans 25:75), Permethrin]",W,N.O,,,O.W,No,Yes,,Yes,
CC1(C)O[C@@H]2C[C@H]3[C@@H]4CCC5=CC(=O)CC[C@]5(C)[C@@]4(F)[C@@H](O)C[C@]3(C)[C@]2(C(=O)CCl)O1 [Halcinonide],,,,,,,,,,High Potency
O=C(O)CCCCCCCC(=O)O [Azelaic acid],W,N.O,W,N.O,W,N.O,Yes,Yes,Yes,

# Further lines, with some results ahead:
"COLOR [2, 4]","ODOR [2, 4]","COLOR [2, 5]","ODOR [2, 5]","COLOR [2, 6]","ODOR [2, 6]","SHAKABILITY [3, 4]","SHAKABILITY [3, 5]","SHAKABILITY [3, 6]",SMILES,Relative Potency [1]
W,N.O,,,W,No,Yes,,Yes,CN(C/C=C/C#CC(C)(C)C)Cc1cccc2ccccc12 [Terbinafine HCl],
W,N.O,W,N.O,W,N.O,Yes,Yes,Yes,Cc1cc(C2CCCCC2)n(O)c(=O)c1 [Ciclopiroxolamine],
W,N.O,W,N.O,W,N.O,Yes,Yes,Yes,O=C(OOC(=O)c1ccccc1)c1ccccc1 [Benzoyl peroxide],
W,N.O,,,O.W,No,Yes,,Yes,O=C(O)c1ccccc1O [Salicylic acid],
W,N.O,W,N.O,W,N.O,Yes,Yes,Yes,C=C1/C(=C\C=C2/CCC[C@]3(C)[C@@H]([C@H](C)/C=C/[C@@H](O)C4CC4)CC[C@@H]23)C[C@@H](O)C[C@@H]1O [Calcipotriol hydrate],
W,N.O,,,W,N.O,Yes,,Yes,CC(=O)N1CCN(c2ccc(OCC3COC(Cn4ccnc4)(c4ccc(Cl)cc4Cl)O3)cc2)CC1 (centres unmarked) [Ketoconazole],
Light,N.O,,,O.W,No,Yes,,Yes,CN1C(C(=O)Nc2ccccn2)=C(O)c2ccccc2S1(=O)=O [Piroxicam],
